The results in this text go back to US12600709B2, “Nonpeptide somatostatin type 5 receptor agonists and uses thereof” (Crinetics Pharmaceuticals, Inc., priority 2019, dated 2026).

Like-named read-outs stand apart in the source and are kept apart here. Bounds are passed on as bounds.

Experiment [1] deals with T1, human somatostatin receptor subtype 2 (Homo sapiens, UniProt P30874).
T1 construct: expressed in transfected cells
Description: cAMP assay for SST2R (inhibition of cAMP in CHO-K1 cells). In kind it is cell-based. Conditions: Table B; inhibition of cAMP via human SST2 receptor; read-out: SST2 potency. Put shortly:
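Agonism read as decrease in NKH477 (1.6 μM)-stimulated cAMP: compounds applied 20 min, 37° C, with 0.2 mM IBMX, to CHO-K1 stably expressing human SSTR2. cAMP quantified in lysates by time-resolved fluorescence (HTRF kit, 1-24 h RT), standard-curve regression, then EC50.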
For orientation: Changes in cAMP serve as a functional read-out for many G protein-coupled receptors.

Experiment [2] has as its target T2, human somatostatin receptor subtype 5 (Homo sapiens, UniProt P35346).
T2 construct: expressed in transfected cells
Description: cAMP assay for SST5R (inhibition of cAMP in CHO-K1 cells). The class given is cell-based. Particulars: for EC50: inhibition of cAMP via human SST5 receptor, read-out: SST5 potency. Put shortly:
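CHO-K1 cells stably expressing human SSTR5 were treated 20 min at 37 °C with compounds plus 1.6 μM NKH477 in HBSS, 0.5 mM HEPES pH 7.4, 0.1% BSA, 0.2 mM IBMX. Lysate cAMP measured by HTRF against a standard curve; EC50 from cAMP-versus-concentration plots.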

Where [3] appears, read: Table B, class symbols, SST5 receptor over SST2 receptor.

T2 sequence (P35346 whole entry): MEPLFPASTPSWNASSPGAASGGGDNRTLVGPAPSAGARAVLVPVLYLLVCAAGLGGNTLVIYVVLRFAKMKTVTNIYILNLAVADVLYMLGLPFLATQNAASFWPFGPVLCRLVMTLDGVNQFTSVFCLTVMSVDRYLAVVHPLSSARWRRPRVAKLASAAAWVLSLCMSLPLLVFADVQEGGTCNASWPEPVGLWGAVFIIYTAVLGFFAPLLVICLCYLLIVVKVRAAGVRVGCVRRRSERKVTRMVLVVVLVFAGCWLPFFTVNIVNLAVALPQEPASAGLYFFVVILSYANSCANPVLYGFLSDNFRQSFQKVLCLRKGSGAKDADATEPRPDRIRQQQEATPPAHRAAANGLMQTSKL
T1 sequence (P30874 whole entry): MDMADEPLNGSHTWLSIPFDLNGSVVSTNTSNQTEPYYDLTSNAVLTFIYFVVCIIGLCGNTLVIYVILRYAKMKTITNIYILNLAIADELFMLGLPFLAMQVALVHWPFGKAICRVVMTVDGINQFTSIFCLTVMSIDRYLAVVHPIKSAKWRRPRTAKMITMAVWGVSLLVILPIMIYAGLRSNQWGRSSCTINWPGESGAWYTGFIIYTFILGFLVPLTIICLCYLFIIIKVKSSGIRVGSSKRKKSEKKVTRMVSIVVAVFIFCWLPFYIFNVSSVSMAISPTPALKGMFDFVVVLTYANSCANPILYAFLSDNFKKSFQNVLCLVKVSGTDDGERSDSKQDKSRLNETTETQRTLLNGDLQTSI

With `Cc1cc(C)cc(-c2cncc(C(=O)NC3CCCC(C)(C)C3)c2N2CC[C@](C)(N)C2)c1` (stereo partly drawn) [1-11, 4-[(3S)-3-amino-3-methylpyrrolidin-1-yl]-N-(3,3-dimethylcyclohexyl)-5-(3,5-dimethylphenyl)pyridine-3-carboxamide], the EC50 in experiment [1] was above 1000 nM; in experiment [2] (Table A) it was below 10 nM; in experiment [2] (Table B), below 10 nM. Further, the “Fold selectivity for SST5 vs SST2” value in experiment [2] (setting [3]) is reported as “+++ (+++=>500)”.
As to `Cc1ncc(C(=O)N[C@@H](C)C2CC2)c(N2CC[C@](C)(N)C2)c1-c1cc(F)cc(F)c1` [1-122, 4-[(3S)-3-amino-3-methylpyrrolidin-1-yl]-N-[(1S)-1-cyclopropylethyl]-5-(3,5-difluorophenyl)-6-methylpyridine-3-carboxamide], the EC50 in experiment [1] is 100 to 1000 nM; in experiment [2] (Table A), below 10 nM; in experiment [2] (Table B), below 10 nM. In experiment [2] (setting [3]), the “Fold selectivity for SST5 vs SST2” value is recorded as “+++ (+++=>500)”.
As to `C[C@]1(N)CCN(c2c(C(=O)NC3CCCCC3)cnc(C(F)(F)F)c2-c2cc(F)cc(F)c2)C1` [1-210, 4-[(3S)-3-amino-3-methylpyrrolidin-1-yl]-N-cyclohexyl-5-(3,5-difluorophenyl)-6-(trifluoromethyl)pyridine-3-carboxamide], the EC50 is 10 to 100 nM in experiment [1], below 10 nM in experiment [2] (Table A) and below 10 nM in experiment [2] (Table B). Moreover, in experiment [2] (setting [3]), the “Fold selectivity for SST5 vs SST2” value is on record as “+++ (+++=>500)”.
Take `COc1ncc(C(=O)NC23CC(F)(C2)C3)c(N2CC[C@H](N)C2)c1-c1cc(F)cc(Cl)c1` [1-286, 4-[(3S)-3-aminopyrrolidin-1-yl]-5-(3-chloro-5-fluorophenyl)-N-{3-fluorobicyclo[1.1.1]pentan-1-yl}-6-methoxypyridine-3-carboxamide]: the results for the EC50 in experiment [1], in experiment [2] (Table A) and in experiment [2] (Table B) were 100 to 1000 nM, below 10 nM and below 10 nM, respectively. Also, in experiment [2] (setting [3]), the “Fold selectivity for SST5 vs SST2” value is listed as “+++ (+++=>500)”.
As for `C[C@H](NC(=O)c1cnc(C(F)(F)F)c(-c2cc(Cl)cc(Cl)c2)c1N1CC[C@H](N)C1)C1CC1` [1-215, 4-[(3S)-3-aminopyrrolidin-1-yl]-N-[(1S)-1-cyclopropylethyl]-5-(3,5-dichlorophenyl)-6-(trifluoromethyl)pyridine-3-carboxamide], the values for the EC50 in experiment [1], in experiment [2] (Table A) and in experiment [2] (Table B) were 100 to 1000 nM, below 10 nM and below 10 nM, respectively. The “Fold selectivity for SST5 vs SST2” value in experiment [2] (setting [3]) is given as “+++ (+++=>500)”.
As to `C[C@H](NC(=O)c1cnc(C#N)c(-c2ccn(C)n2)c1N1CC[C@](C)(N)C1)C1CC1` [1-121, 4-[(3S)-3-amino-3-methylpyrrolidin-1-yl]-6-cyano-N-[(1S)-1-cyclopropylethyl]-5-(1-methyl-1H-pyrazol-3-yl)pyridine-3-carboxamide], the figures for the EC50 in experiment [1], in experiment [2] (Table A) and in experiment [2] (Table B) were above 1000 nM, below 10 nM and below 10 nM, respectively. For the same compound, the “Fold selectivity for SST5 vs SST2” value in experiment [2] (setting [3]) was “+++ (+++=>500)”.
Consider `COCCOc1ncc(C(=O)N[C@@H](C)C2CC2)c(N2CC[C@](C)(N)C2)c1-c1cc(F)cc(F)c1` [1-179, 4-[(3S)-3-amino-3-methylpyrrolidin-1-yl]-N-[(1S)-1-cyclopropylethyl]-5-(3,5-difluorophenyl)-6-(2-methoxyethoxy)pyridine-3-carboxamide], for which the figures for the EC50 in experiment [1], in experiment [2] (Table A) and in experiment [2] (Table B) were 100 to 1000 nM, below 10 nM and below 10 nM, respectively. Further, in experiment [2] (setting [3]), the “Fold selectivity for SST5 vs SST2” value was “+++ (+++=>500)”.
For the compound `N#Cc1ncc(C(=O)NC2CC(F)(F)C2)c(N2CC[C@H](N)C2)c1-c1cc(F)cc(F)c1` [1-68, 4-[(3S)-3-aminopyrrolidin-1-yl]-6-cyano-N-(3,3-difluorocyclobutyl)-5-(3,5-difluorophenyl)pyridine-3-carboxamide], the EC50 in experiment [1] was above 1000 nM; in experiment [2] (Table A), below 10 nM; in experiment [2] (Table B), below 10 nM. Moreover, the “Fold selectivity for SST5 vs SST2” value in experiment [2] (setting [3]) is recorded as “+++ (+++=>500)”.
For `CC1(C)CC(NC(=O)c2cnc(C#N)c(-c3cc(F)cc(F)c3)c2N2CC[C@](C)(N)C2)CCO1` (stereo partly drawn) [1-113, 4-[(3S)-3-amino-3-methylpyrrolidin-1-yl]-6-cyano-5-(3,5-difluorophenyl)-N-(2,2-dimethyloxan-4-yl)pyridine-3-carboxamide], the EC50 in experiment [1] was above 1000 nM; in experiment [2] (Table A), below 10 nM; in experiment [2] (Table B), below 10 nM. Also, in experiment [2] (setting [3]), the “Fold selectivity for SST5 vs SST2” value is “+++ (+++=>500)”.
Consider `Cc1cccc2[nH]c(-c3cncc(C(=O)N4CCC(C5CC5)C4)c3N3CC[C@](C)(N)C3)nc12` (stereo partly drawn) [2-42, (3S)-1-[3-(3-cyclopropylpyrrolidine-1-carbonyl)-5-(4-methyl-1H-1,3-benzodiazol-2-yl)pyridin-4-yl]-3-methylpyrrolidin-3-amine], for which the values for the EC50 in experiment [1], in experiment [2] (Table A) and in experiment [2] (Table B) were 100 to 1000 nM, below 10 nM and below 10 nM, respectively. Further, in experiment [2] (setting [3]), the “Fold selectivity for SST5 vs SST2” value is “++ (++=100 to 499)”.
In the case of `COc1cc(-c2c(C(F)(F)F)ncc(C(=O)N[C@@H](C)C3CC3)c2N2CC[C@](C)(N)C2)ccn1` [1-208, 4-[(3S)-3-amino-3-methylpyrrolidin-1-yl]-N-[(1S)-1-cyclopropylethyl]-2′-methoxy-2-(trifluoromethyl)-[3,4′-bipyridine]-5-carboxamide], the figures for the EC50 in experiment [1], in experiment [2] (Table A) and in experiment [2] (Table B) were 100 to 1000 nM, below 10 nM and below 10 nM, respectively. The “Fold selectivity for SST5 vs SST2” value in experiment [2] (setting [3]) is “+++ (+++=>500)”.
As to `Cc1cc(C)cc(NC(=O)c2cncc(-c3cc(C)cc(C)c3)c2N2CCC(CN)C2)c1` (stereo not shown) [4-(3-(aminomethyl)pyrrolidin-1-yl)-N,5-bis(3,5-dimethylphenyl)nicotinamide, reference compound], the EC50 in experiment [1] and in experiment [2] (Table B) was below 10 nM in each case. In experiment [2] (Table B, numeric values for comparison compounds), the “Fold selectivity for SST5 vs SST2” value worked out at 0.084.
Take `CC(C)NC(=O)c1cnc(C#N)c(-c2cc(F)cc(F)c2)c1N1CC[C@](C)(N)C1` [1-91, 4-[(3S)-3-amino-3-methylpyrrolidin-1-yl]-6-cyano-5-(3,5-difluorophenyl)-N-(propan-2-yl)pyridine-3-carboxamide]: the EC50 in experiment [1] is 100 to 1000 nM; in experiment [2] (Table A) it was below 10 nM; in experiment [2] (Table B) it was below 10 nM. Moreover, the “Fold selectivity for SST5 vs SST2” value in experiment [2] (setting [3]) was “+++ (+++=>500)”.
Turning to `Cc1ncc(C(=O)N[C@@H](C)C(F)(F)F)c(N2CC[C@](C)(N)C2)c1-c1ccc(F)c(Cl)c1` [1-287, 4-[(3S)-3-amino-3-methylpyrrolidin-1-yl]-5-(3-chloro-4-fluorophenyl)-6-methyl-N-[(2S)-1,1,1-trifluoropropan-2-yl]pyridine-3-carboxamide], the EC50 in experiment [1] was 10 to 100 nM; in experiment [2] (Table A) it was below 10 nM; in experiment [2] (Table B) it was below 10 nM. The “Fold selectivity for SST5 vs SST2” value in experiment [2] (setting [3]) is reported as “+++ (+++=>500)”.
On to `Cc1cc(F)cc(-c2cncc(C(=O)NC(C)C3CC3)c2N2CC[C@](C)(N)C2)c1` (stereo partly drawn) [1-24, 4-[(3S)-3-amino-3-methylpyrrolidin-1-yl]-N-(1-cyclopropylethyl)-5-(3-fluoro-5-methylphenyl)pyridine-3-carboxamide], for which the EC50 is 10 to 100 nM in experiment [1], below 10 nM in experiment [2] (Table A) and below 10 nM in experiment [2] (Table B). Besides, the “Fold selectivity for SST5 vs SST2” value in experiment [2] (setting [3]) is on record as “+++ (+++=>500)”.
As for `Cc1cccc2[nH]c(-c3cncc(C(=O)N4CCCC4C4CC4)c3N3CC[C@](C)(N)C3)nc12` (stereo partly drawn) [2-43, (3S)-1-[3-(2-cyclopropylpyrrolidine-1-carbonyl)-5-(4-methyl-1H-1,3-benzodiazol-2-yl)pyridin-4-yl]-3-methylpyrrolidin-3-amine], the EC50 in experiment [1] is 10 to 100 nM; in experiment [2] (Table A), below 10 nM; in experiment [2] (Table B) it was below 10 nM. In addition, the “Fold selectivity for SST5 vs SST2” value in experiment [2] (setting [3]) was “+ (+=10 to 99)”.
Take `C[C@H](NC(=O)c1cnc(OCC(=O)O)c(-c2cc(F)cc(F)c2)c1N1CC[C@](C)(N)C1)C1CC1` [1-247, 2-({4-[(3S)-3-amino-3-methylpyrrolidin-1-yl]-5-{[(1S)-1-cyclopropylethyl]carbamoyl}-3-(3,5-difluorophenyl)pyridin-2-yl}oxy)acetic acid]: the EC50 in experiment [1] is above 1000 nM; in experiment [2] (Table A), below 10 nM; in experiment [2] (Table B) it was below 10 nM. Further, the “Fold selectivity for SST5 vs SST2” value in experiment [2] (setting [3]) is reported as “+++ (+++=>500)”.
As for `Cc1ncc(C(=O)N[C@@H](C)C2CC2)c(N2CC[C@](C)(N)C2)c1-c1cc(F)cc(OC(F)F)c1` [1-173, 4-[(3S)-3-amino-3-methylpyrrolidin-1-yl]-N-[(1S)-1-cyclopropylethyl]-5-[3-(difluoromethoxy)-5-fluorophenyl]-6-methylpyridine-3-carboxamide], the EC50 was 100 to 1000 nM in experiment [1], below 10 nM in experiment [2] (Table A) and below 10 nM in experiment [2] (Table B). Moreover, in experiment [2] (setting [3]), the “Fold selectivity for SST5 vs SST2” value was “++ (++=100 to 499)”.
Turning to `Cc1ncc(C(=O)NC2CCCCC2)c(N2CC[C@](C)(N)C2)c1-c1ccnc(C(F)(F)F)c1` [1-257, 4-[(3S)-3-amino-3-methylpyrrolidin-1-yl]-N-cyclohexyl-2-methyl-2′-(trifluoromethyl)-[3,4′-bipyridine]-5-carboxamide], the EC50 is above 1000 nM in experiment [1], below 10 nM in experiment [2] (Table A) and below 10 nM in experiment [2] (Table B). The “Fold selectivity for SST5 vs SST2” value in experiment [2] (setting [3]) is given as “+++ (+++=>500)”.
Regarding `COc1cc(-c2c(C#N)ncc(C(=O)NC3CCCC3)c2N2CC[C@](C)(N)C2)ccn1` [1-254, 4-[(3S)-3-amino-3-methylpyrrolidin-1-yl]-2-cyano-N-cyclopentyl-2′-methoxy-[3,4′-bipyridine]-5-carboxamide], the EC50 in experiment [1] was above 1000 nM; in experiment [2] (Table A), below 10 nM; in experiment [2] (Table B), below 10 nM. For the same compound, in experiment [2] (setting [3]), the “Fold selectivity for SST5 vs SST2” value is given as “+++ (+++=>500)”.
